In patent US20240400515A1, “NPM1-DEPENDING LEUKEMIA AGENTS” (UNIVERSIDAD COMPLUTENSE DE MADRID, priority 2021, published 2024):

Key:
MOLM13 (NPM1 C−) = assay: Viability assay (WST-1) in MOLM13 cell line; assay type: cell-based; conditions: Homo sapiens, MOLM-13, viability percentage relative to vehicle, 24 h
Protocol: (§1) Two different acute myeloid leukemia cell lines, OCI-AML3 (NPM1 C+) and MOLM13 (NPM1 C−) were obtained from the DSMZ cell repository (Braunschweig, Germany). Cell lines were expanded and cryogenically frozen upon acquisition to establish stocks in liquid nitrogen until use. Cultured cells were maintained at 37° C. in a humidified incubator in an atmosphere of 5% CO2 and passaged every 2-3 days. RPMI media (Gibco/Life Technologies; Grand Island, NY) supplemented with 10% fetal bovine serum (FBS) (Hyclone) and 1% penicillin/streptomycin was used.
(§2) The sensitivity of the compounds on OCI-AML3 (NPM1 C+) and MOLM13 (NPM1 C−) cell viability was assessed as an in-vitro acute myeloid leukemia (AML) model. Briefly, cells were seeded at a density of 2×10^4 cells/100 μL/well in 96-well plates. Cell lines were treated for 24 h with the test compound diluted in DMSO at the concentration of 5 μM or vehicle (DMSO). Then, 10 μL of WST-1 solution ((2-(4-iodophenyl)-3-(4-nitrophenyl)-5-(2,4-disulfophenyl)-2H-tetrazolium monosodium salt, Merck) were added and the cells were incubated for 4 h at 37° C. The absorbance was measured at 450 nm using an Asys UVM 340 microplate reader (Biochrom Ltd., Cambridge, UK). The background absorbance of blank wells containing only medium was subtracted from each test well. The data were reported as viability percentage relative to vehicle, obtained from two or three independent experiments performed in triplicate (Table 1).

OCI-AML3 (NPM1 C+) = assay: Viability assay (WST-1) in OCI-AML3 cell line; assay type: cell-based; conditions: Homo sapiens, OCI-AML-3, viability percentage relative to vehicle, 24 h
Protocol: as §1, §2

SMILES | viability at 5 µM (MOLM13 (NPM1 C−)) [%] | viability at 5 µM (OCI-AML3 (NPM1 C+)) [%]
Cc1ccc([C@H]2Cc3[nH]c4ccccc4c3[C@@H](CCNC3CC3)[C@@H]2N)cc1 [Iaa, (2R,3R,4R)-4-[2-(Cyclopropylamino)ethyl]-2-(4-methylphenyl)-2,3,4,9-tetrahydro-1H-carbazol-3-amine] | 2 ± 2 | 1 ± 1
Cc1ccc([C@H]2Cc3[nH]c4ccc(Cl)cc4c3[C@@H](CCNCC3CC(F)(F)C3)[C@@H]2N)cc1 [Iab, (2R,3R,4R)-6-Chloro-4-(2-{[(3,3-difluorocyclobutyl)methyl]amino}ethyl)-2-(4-methylphenyl)-2,3,4,9-tetrahydro-1H-carbazol-3-amine] | 14 ± 8 | 17 ± 4
CN[C@@H]1[C@@H](c2ccc(C)cc2)Cc2[nH]c3ccc(Cl)cc3c2[C@H]1CCNCC1CC(F)(F)C1 [Iac, (2R,3R,4R)-6-Chloro-4-(2-{[(3,3-difluorocyclobutyl)methyl]amino}ethyl)-N-methyl-2-(4-methylphenyl)-2,3,4,9-tetrahydro-1H-carbazol-3-amine] | 5 ± 1 | 6
COc1ccc2[nH]c3c(c2c1)[C@@H](CCNCC1CC1)[C@H](N)[C@@H](c1ccc(C)cc1)C3 [Iaf, (2R,3R,4R)-4-{2-[(Cyclopropylmethyl)amino]ethyl}-6-methoxy-2-(4-methylphenyl)-2,3,4,9-tetrahydro-1H-carbazol-3-amine] | 60 ± 2 | 39 ± 6
Cc1ccc([C@H]2Cc3[nH]c4ccc(Cl)cc4c3[C@@H](CCNCC3CC3)[C@@H]2N)cc1 [Iag, (2R,3R,4R)-6-Chloro-4-{2-[(cyclopropylmethyl)amino]ethyl}-2-(4-methylphenyl)-2,3,4,9-tetrahydro-1H-carbazol-3-amine] | 10 ± 6 | 9 ± 5
COc1ccc([C@H]2Cc3[nH]c4ccc(Cl)cc4c3[C@@H](CCNCC3CC3)[C@@H]2N)cc1 [Iah, (2R,3R,4R)-6-Chloro-4-{2-[(cyclopropylmethyl)amino]ethyl}-2-(4-methoxyphenyl)-2,3,4,9-tetrahydro-1H-carbazol-3-amine] | 16 ± 2 | 26 ± 12
Cc1ccc([C@H]2Cc3[nH]c4ccc(C)cc4c3[C@@H](CCNCC3CC3)[C@@H]2N)cc1 [Iai, (2R,3R,4R)-4-{2-[(Cyclopropylmethyl)amino]ethyl}-6-methyl-2-(4-methylphenyl)-2,3,4,9-tetrahydro-1H-carbazol-3-amine] | 6 ± 2 | 12 ± 2
Cc1ccc([C@H]2Cc3[nH]c4ccc(F)cc4c3[C@@H](CCNCC3CC3)[C@@H]2N)cc1 [Iaj, (2R,3R,4R)-4-{2-[(Cyclopropylmethyl)amino]ethyl}-6-fluoro-2-(4-methylphenyl)-2,3,4,9-tetrahydro-1H-carbazol-3-amine] | 4 ± 1 | 7 ± 1
CN[C@@H]1[C@@H](c2ccc(C)cc2)Cc2[nH]c3ccc(Cl)cc3c2[C@H]1CCNCC1CC1 [Iak, (2R,3R,4R)-6-Chloro-4-{2-[(cyclopropylmethyl)amino]ethyl}-N-methyl-2-(4-methylphenyl)-2,3,4,9-tetrahydro-1H-carbazol-3-amine] | 7 ± 2 | 1 ± 1
Cc1ccc([C@H]2Cc3c(c4ccccc4n3C)[C@@H](CCNCC3CC3)[C@@H]2N)cc1 [Ial, (2R,3R,4R)-4-{2-[(Cyclopropylmethyl)amino]ethyl}-9-methyl-2-(4-methylphenyl)-2,3,4,9-tetrahydro-1H-carbazol-3-amine] | 17 | 22 ± 2
Cc1ccc([C@H]2Cc3[nH]c4ccccc4c3[C@@H](CCNCC3CC3)[C@@H]2N)cc1 [Ib, (2R,3R,4R)-4-{2-[(Cyclopropylmethyl)amino]ethyl}-2-(4-methylphenyl)-2,3,4,9-tetrahydro-1H-carbazol-3-amine] | 20 ± 5 | 16
COc1ccc([C@@H]2Cc3[nH]c4ccccc4c3[C@H](CCNCC3CC3)[C@H]2N)cc1 [Id, (2S,3S,4S)-4-{2-[(Cyclopropylmethyl)amino]ethyl}-2-(4-methoxyphenyl)-2,3,4,9-tetrahydro-1H-carbazol-3-amine] | 40 | 33 ± 5
